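Values below derive from 48-hour exposures of cells grown in 96-well plates, with endpoints linearly interpolated between the two concentrations bracketing the appropriate inhibition level. GI50: concentration for 50% inhibition of growth. TGI: total growth inhibition.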
Assays:
Assay in all cases: inhibition of tumour cell growth, NCI panel, 48 h
[1] = test system: RXF 393 renal
[2] = test system: CAKI-1 renal
[3] = test system: EKVX NSCLC
[4] = test system: NCI-H522 lung
[5] = test system: NCI-H460 lung
[6] = test system: SF-268 CNS
[7] = test system: MDA-MB-231 breast
[8] = test system: DU-145 prostate
[9] = test system: SK-OV-3 ovarian
[10] = test system: MOLT-4 leukemia
[11] = test system: M14 melanoma
[12] = test system: UO-31 renal
[13] = test system: SNB-75 CNS
[14] = test system: NCI-H23 lung
[15] = test system: IGROV1 ovarian
[16] = test system: COLO 205 colon
[17] = test system: OVCAR-3 ovarian
[18] = test system: KM12 colon
[19] = test system: SN12C renal
[20] = test system: A549 NSCLC
[21] = test system: HCT-15 colon
[22] = test system: CCRF-CEM leukemia
[23] = test system: ACHN renal
[24] = test system: A498 renal
[25] = test system: MCF7 breast
[26] = test system: K-562 leukemia
[27] = test system: NCI-H226 lung
[28] = test system: UACC-62 melanoma
[29] = test system: OVCAR-8 ovarian
[30] = test system: U251 CNS
[31] = test system: SF-295 CNS
[32] = test system: HS 578T breast
[33] = test system: HCT-116 colon
[34] = test system: OVCAR-4 ovarian
[35] = test system: SK-MEL-5 melanoma
[36] = test system: OVCAR-5 ovarian
[37] = test system: LOX IMVI melanoma
[38] = test system: MDA-MB-468 breast
[39] = test system: HOP-62 NSCLC
[40] = test system: HT29 colon
[41] = test system: SK-MEL-28 melanoma
[42] = test system: T-47D breast
[43] = test system: HCC-2998 colon
[44] = test system: SF-539 CNS
[45] = test system: SR leukemia
[46] = test system: RPMI-8226 leukemia
[47] = test system: SNB-19 CNS
[48] = test system: UACC-257 melanoma
[49] = test system: SW-620 colon
[50] = test system: SK-MEL-2 melanoma
[51] = test system: HL-60(TB) leukemia
[52] = test system: MALME-3M melanoma
[53] = test system: HOP-92 NSCLC
[54] = test system: TK-10 renal
[55] = test system: MDA-MB-435
[56] = test system: PC-3 prostate
[57] = test system: 786-0 renal
[58] = test system: BT-549 breast

O=C(c1ccc(O)cc1)C1[C@H](c2ccc(Br)cc2)[C@@H](c2ccccc2)NC12C(=O)Nc1ccc(Br)cc12 (some centres not stated)
GI50 [1]: 3.54 µM
TGI [1]: 8.33 µM
GI50 [2]: 2.28 µM
TGI [2]: 7.08 µM
GI50 [3]: 4.19 µM
TGI [3]: 9.07 µM
GI50 [4]: 4.45 µM
TGI [4]: 9.15 µM
GI50 [5]: 4.29 µM
TGI [5]: 8.92 µM
GI50 [6]: 4.56 µM
TGI [6]: 10.2 µM
GI50 [7]: 4.25 µM
TGI [7]: 8.61 µM
GI50 [8]: 5.23 µM
TGI [8]: 10 µM
GI50 [9]: 4.51 µM
TGI [9]: 9.21 µM
GI50 [10]: 3.39 µM
TGI [10]: 9.62 µM
GI50 [11]: 4.52 µM
TGI [11]: 9.24 µM
GI50 [12]: 2.66 µM
TGI [12]: 7.08 µM
GI50 [13]: 2.12 µM
TGI [13]: 7.06 µM
GI50 [14]: 4.9 µM
TGI [14]: 9.81 µM
GI50 [15]: 3.88 µM
TGI [15]: 8.19 µM
GI50 [16]: 4.57 µM
TGI [16]: 9.99 µM
GI50 [17]: 5.21 µM
TGI [17]: 10.1 µM
GI50 [18]: 4.5 µM
TGI [18]: 10.1 µM
GI50 [19]: 4.53 µM
TGI [19]: 8.99 µM
GI50 [20]: 3.59 µM
TGI [20]: 8.38 µM
GI50 [21]: 4.16 µM
TGI [21]: 9.35 µM
GI50 [22]: 5.09 µM
TGI [22]: 11.6 µM
GI50 [23]: 4.03 µM
TGI [23]: 8.21 µM
GI50 [24]: 4.24 µM
TGI [24]: 8.7 µM
GI50 [25]: 3.89 µM
TGI [25]: 9.13 µM
GI50 [26]: 4.72 µM
TGI [26]: 11.8 µM
GI50 [27]: 4.39 µM
TGI [27]: 9.76 µM
GI50 [28]: 4.22 µM
TGI [28]: 8.54 µM
GI50 [29]: 5.06 µM
TGI [29]: 9.8 µM
GI50 [30]: 4.96 µM
TGI [30]: 9.62 µM
GI50 [31]: 4.23 µM
TGI [31]: 8.81 µM
GI50 [32]: 4.95 µM
TGI [32]: 12.9 µM
GI50 [33]: 4.16 µM
TGI [33]: 8.63 µM
GI50 [34]: 4.82 µM
TGI [34]: 9.63 µM
GI50 [35]: 5.63 µM
TGI [35]: 10.4 µM
GI50 [36]: 4.83 µM
TGI [36]: 9.34 µM
GI50 [37]: 4.36 µM
TGI [37]: 9.1 µM
GI50 [38]: 4.58 µM
TGI [38]: 9.97 µM
GI50 [39]: 4.81 µM
TGI [39]: 9.7 µM
GI50 [40]: 4.48 µM
TGI [40]: 9.48 µM
GI50 [41]: 5.3 µM
TGI [41]: 9.96 µM
GI50 [42]: 3.93 µM
TGI [42]: 8.58 µM
GI50 [43]: 4.19 µM
TGI [43]: 8.86 µM
GI50 [44]: 5.34 µM
TGI [44]: 10 µM
GI50 [45]: 3.79 µM
TGI [45]: 9.3 µM
GI50 [46]: 5.97 µM
TGI [46]: 19 µM
GI50 [47]: 5.11 µM
TGI [47]: 9.75 µM
GI50 [48]: 4.93 µM
TGI [48]: 9.52 µM
GI50 [49]: 5.08 µM
TGI [49]: 10.2 µM
GI50 [50]: 4.95 µM
TGI [50]: 9.48 µM
GI50 [51]: 7.39 µM
TGI [51]: 16.7 µM
GI50 [52]: 4.96 µM
TGI [52]: 9.61 µM
GI50 [53]: 4.39 µM
TGI [53]: 9.26 µM
GI50 [54]: 4.44 µM
TGI [54]: 8.86 µM
GI50 [55]: 5.81 µM
TGI [55]: 11.1 µM
GI50 [56]: 4.14 µM
TGI [56]: 9.22 µM
GI50 [57]: 5.22 µM
TGI [57]: 9.86 µM
GI50 [58]: 5.54 µM
TGI [58]: 10.4 µM

CC1=C(C(=O)Nc2ccccc2)C(c2ccc3ccccc3c2)n2c(nc3ccccc32)N1 (configuration not stated)
GI50 [1]: 11.8 µM
TGI [1]: 40.5 µM
GI50 [2]: 19.2 µM
TGI [2]: 56.3 µM
GI50 [3]: 16 µM
TGI [3]: 46.2 µM
GI50 [4]: 18.1 µM
TGI [4]: 45.7 µM
GI50 [5]: 15 µM
TGI [5]: 33.6 µM
GI50 [6]: 27.3 µM
TGI [6]: > 100 µM
GI50 [7]: 20.4 µM
TGI [7]: 41.5 µM
GI50 [8]: 18.2 µM
TGI [8]: 62.3 µM
GI50 [9]: 21.5 µM
TGI [9]: 85.7 µM
GI50 [10]: 5.71 µM
TGI [10]: 72 µM
GI50 [11]: 33.4 µM
TGI [11]: > 100 µM
GI50 [12]: 12.6 µM
TGI [12]: 39.9 µM
GI50 [13]: 10.4 µM
TGI [13]: 30.5 µM
GI50 [14]: 27.7 µM
TGI [14]: > 100 µM
GI50 [15]: 25.8 µM
TGI [15]: 85.7 µM
GI50 [16]: 26.5 µM
TGI [16]: > 100 µM
GI50 [17]: 16.4 µM
TGI [17]: 31.9 µM
GI50 [18]: 31.9 µM
TGI [18]: > 100 µM
GI50 [19]: 17.1 µM
TGI [19]: 40.2 µM
GI50 [20]: 13.5 µM
TGI [20]: 33.2 µM
GI50 [21]: 16.4 µM
TGI [21]: 56.2 µM
GI50 [22]: 8.63 µM
TGI [22]: > 100 µM
GI50 [23]: 17 µM
TGI [23]: 35.3 µM
GI50 [24]: 23.3 µM
TGI [24]: 63.3 µM
GI50 [25]: 9.12 µM
TGI [25]: 27.7 µM
GI50 [26]: 7.06 µM
TGI [26]: > 100 µM
GI50 [27]: 12.9 µM
TGI [27]: 34.8 µM
GI50 [28]: 20.3 µM
TGI [28]: 63.5 µM
GI50 [29]: 16.9 µM
TGI [29]: 35.9 µM
GI50 [30]: 16.3 µM
TGI [30]: 32.5 µM
GI50 [31]: 17 µM
TGI [31]: 37.6 µM
GI50 [32]: 15.6 µM
TGI [32]: 57.2 µM
GI50 [33]: 13.4 µM
TGI [33]: 33.1 µM
GI50 [34]: 15.4 µM
TGI [34]: 45.3 µM
GI50 [35]: 58.6 µM
TGI [35]: > 100 µM
GI50 [36]: 28 µM
TGI [36]: 95.6 µM
GI50 [37]: 14.3 µM
TGI [37]: 31 µM
GI50 [38]: 14.1 µM
TGI [38]: 35.1 µM
GI50 [39]: 15.4 µM
TGI [39]: 31.6 µM
GI50 [40]: 24.4 µM
TGI [40]: 69.2 µM
GI50 [41]: 21.2 µM
TGI [41]: 56.4 µM
GI50 [42]: 58.5 µM
TGI [42]: > 100 µM
GI50 [43]: 34 µM
TGI [43]: > 100 µM
GI50 [44]: 15.5 µM
TGI [44]: 30.4 µM
GI50 [45]: 22 µM
TGI [45]: > 100 µM
GI50 [46]: 20 µM
TGI [46]: > 100 µM
GI50 [47]: 22.7 µM
TGI [47]: 59.2 µM
GI50 [48]: 67.1 µM
TGI [48]: > 100 µM
GI50 [49]: 22.3 µM
TGI [49]: > 100 µM
GI50 [50]: 22.1 µM
TGI [50]: 71.5 µM
GI50 [51]: 13.7 µM
TGI [51]: > 100 µM
GI50 [52]: 18.3 µM
TGI [52]: 40.3 µM
GI50 [53]: 15.3 µM
TGI [53]: 36.5 µM
GI50 [54]: 19.3 µM
TGI [54]: 48.6 µM
GI50 [55]: 41.6 µM
TGI [55]: > 100 µM
GI50 [56]: 12.4 µM
TGI [56]: 31.4 µM
GI50 [57]: 19.6 µM
TGI [57]: 38.6 µM
GI50 [58]: 28 µM
TGI [58]: > 100 µM
